Experimental data from patent US8476301B2, “Pyrrolidin-3-ylacetic acid derivative” (Eisai R&D Management Co., Ltd., priority 2011, dated 2013).

target: T1, CX3CR1 (Homo sapiens, UniProt P49238); test: Inhibition of cell migration in fractalkine-induced chemotaxis assay; assay type: cell-based; conditions: CX3CR1-expressing B300 cells preincubated with test compound 30 minutes; fractalkine 0.3 nM in lower wells; Transwell, 3.5 hours at 37° C.; migrated cells counted with CellTiter; read-out: IC50 (nM), 50% inhibitory concentration on fractalkine-induced cell migration
T1 construct: expressed in transfected cells; host or cells: B300 cells
T1 sequence (P49238 1-355): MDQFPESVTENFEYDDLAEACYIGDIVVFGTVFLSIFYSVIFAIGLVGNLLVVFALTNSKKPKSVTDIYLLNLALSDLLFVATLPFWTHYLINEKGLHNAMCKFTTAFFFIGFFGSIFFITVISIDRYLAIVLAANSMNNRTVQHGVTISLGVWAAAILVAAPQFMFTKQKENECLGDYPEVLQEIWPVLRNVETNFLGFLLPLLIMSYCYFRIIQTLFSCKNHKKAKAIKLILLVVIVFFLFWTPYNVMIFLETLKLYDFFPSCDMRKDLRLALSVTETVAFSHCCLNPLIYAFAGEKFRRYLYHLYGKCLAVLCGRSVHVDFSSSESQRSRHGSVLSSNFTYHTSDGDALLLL
Procedure: The inhibitory effects of the example compounds on fractalkine-induced cell migration were examined using CX3CR1-transfected B300 cells
After equilibrating the Transwell plate (24-well clusters, pore size: 5 μm, manufactured by Corning Incorporated), a fractalkine solution (0.3 nM, manufactured by R&D Systems, Inc.) was added to the lower wells. CX3CR1-expressing B300 cells which were preincubated with the test compound (0.001, 0.003, 0.01 or 0.03 μM) for 30 minutes were placed in the upper layer wells, followed by incubation under the condition of 5% CO2 for 3.5 hours at 37° C. The number of cells migrated to the lower wells was evaluated using CellTiter (manufactured by Promega Corporation).
The inhibitory rate of the test compound on fractalkine-induced cell migration was calculated by the following formula, where [A] is the number of migrated cells in the presence of both fractalkine and the test compound, [B] is the number of migrated cells in the presence of fractalkine and in the absence of the test compound, and [C] is the number of migrated cells in the absence of both fractalkine and the test compound; the 50% inhibitory concentration (IC50) was calculated based on the inhibitory rate. Inhibitory rate (%)=[1−{(A−C)/(B−C)}]×100 (2) Results

| IC50 [nM] | Compound |
| --- | --- |
| 16 | C[C@H]1CN(Cc2c(Cl)cccc2Cl)C[C@@]1(CC(=O)O)C(=O)N[C@H]1CCN(CC2=CCCCC2)C1 (relative stereo) [Example 9] |
| 31 | Cc1cccc(Cl)c1CN1C[C@H](C)[C@](CC(=O)O)(C(=O)NC2CCN(CC3=CCCC3)CC2)C1 [Example 8, 2-[(3S,4R)-1-[(2-Chloro-6-methylphenyl)methyl]-3-{[(1-cyclopent-1-en-1-ylmethyl)piperidin-4-yl]carbamoyl}-4-methylpyrrolidin-3-yl]acetic acid] |
| 6 | C[C@H]1CN(Cc2c(Cl)cccc2Cl)C[C@@]1(CC(=O)O)C(=O)NC1CCN(CC2=CCCCC2)CC1 [Example 11, 2-[(3S,4R)-3-{[(1-Cyclohex-1-en-1-ylmethyl)piperidin-4-yl]carbamoyl}-1-[(2,6-dichlorophenyl)methyl]-4-methylpyrrolidin-3-yl]acetic acid] |
